Where a SMILES comes first, the peptide text is derived from it. Bridges are numbered along the chain shown (N, C = ends). [ ]: non-standard residue; d: D form. The star is where a group is joined. ξ: configuration not given here. dPhe(4-CONH2) = NC(=O)c1ccc(C[C@@H](N)C(=O)O)cc1; NMePhe(4-Cl) = CN[C@@H](Cc1ccc(Cl)cc1)C(=O)O; dPhe(4-CN) = N#Cc1ccc(C[C@@H](N)C(=O)O)cc1; Phe(4-Cl) = N[C@@H](Cc1ccc(Cl)cc1)C(=O)O; ξPhe(4-Cl) = NC(Cc1ccc(Cl)cc1)C(=O)O; Butanoyl(3,3-Me2) = CC(C)(C)CC(=O)*; NMeY = CN[C@@H](Cc1ccc(O)cc1)C(=O)O; dNMeY = CN[C@H](Cc1ccc(O)cc1)C(=O)O; NMeT = CN[C@H](C(=O)O)[C@@H](C)O; Lys(Me) = CNCCCC[C@H](N)C(=O)O; Tle = CC(C)(C)[C@H](N)C(=O)O; Picolinoyl = O=C(c1ccccn1)*; ξY = NC(Cc1ccc(O)cc1)C(=O)O; ξF = NC(Cc1ccccc1)C(=O)O; Hexanoyl = CCCCCC(=O)*
Molecular target: somatostatin type 2 (SSTR2) receptors (Homo sapiens, UniProt P30874)
Assay: PathHunter β-Arrestin assay, antagonist mode, SSTR2
Type: cell-based
Details: agonist challenge at EC80
Description: The PathHunter® β-Arrestin assay monitors the activation of a GPCR in a homogenous, non-imaging assay format using a technology developed by DiscoveRx called Enzyme Fragment Complementation (EFC) with β-galactosidase (β-Gal) as the functional reporter. […] EA is fused to β-Arrestin and […] is fused to the GPCR of interest. When the GPCR is activated and β-Arrestin is recruited to the receptor, ED and EA complementation occurs, restoring β-Gal activity which is measured using chemiluminescent PathHunter® Detection Reagents. For antagonist determination, cells were pre-incubated with the compounds followed by agonist challenge at the EC80 concentration. Data was normalized to the maximal and minimal response observed in the presence of EC80 ligand and vehicle. Compound activity was analyzed using CBIS data analysis suite ChemInnovation, CA). Percentage inhibition was calculated using the following formula: % Inhibition=100%×(1−(mean signal of test sample-mean signal of vehicle control)/(mean signal of EC80 control-mean signal of vehicle control)). Percentage inhibition was calculated at 10 concentrations in steps on a Log 3 scale ranging from […] to 5e-5 μM. The results were plotted for IC50 calculation.

Chain of somatostatin type 2 (SSTR2) receptors (P30874 whole entry): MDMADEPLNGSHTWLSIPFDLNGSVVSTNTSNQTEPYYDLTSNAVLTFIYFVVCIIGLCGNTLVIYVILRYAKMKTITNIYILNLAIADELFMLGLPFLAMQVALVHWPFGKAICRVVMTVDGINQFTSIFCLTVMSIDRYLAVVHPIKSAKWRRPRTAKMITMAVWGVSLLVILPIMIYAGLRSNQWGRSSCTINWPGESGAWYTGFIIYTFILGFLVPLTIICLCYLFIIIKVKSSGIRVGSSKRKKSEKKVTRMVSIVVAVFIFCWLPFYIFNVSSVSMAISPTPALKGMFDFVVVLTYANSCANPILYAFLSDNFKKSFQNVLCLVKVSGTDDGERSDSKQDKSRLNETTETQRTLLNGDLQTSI

Compound | IC50 [nM]
CNCCCC[C@@H]1NC(=O)[C@@H](Cc2ccc(C(N)=O)cc2)NC(=O)[C@H](Cc2ccc(Cl)cc2)NC(=O)[C@H](NC(=O)[C@@H](N)Cc2ccc(Cl)cc2)CSSC[C@@H](C(=O)NC(Cc2ccc(O)cc2)C(N)=O)NC(=O)[C@H]([C@@H](C)O)NC1=O (stereo partly drawn) [Compound 48, H-Cpa-cyclo[D-Cys-Cpa-D-Phe(4-carbamoyl)-Lys(N^ε-Me)-Thr-Cys]-D-Tyr-NH2] (H-[Phe(4-Cl)][dC][Phe(4-Cl)][dPhe(4-CONH2)][Lys(Me)]TC[ξY]-NH2; disulfide 2-7) | 1.31
NCCCC[C@@H]1NC(=O)[C@@H](Cc2ccc(C(N)=O)cc2)NC(=O)[C@H](Cc2ccc(O)cc2)NC(=O)[C@H](NC(=O)[C@@H](N)Cc2ccc(Cl)cc2)CSSC[C@@H](C(=O)NC(Cc2ccc(O)cc2)C(N)=O)NC(=O)[C@H](CO)NC1=O (stereo partly drawn) [Compound 37, H-Cpa-cyclo[DCys- Tyr-D-(4- carbamoyl)Phe-Lys- Ser-Cys]-DTyr-NH2] (H-[Phe(4-Cl)][dC]Y[dPhe(4-CONH2)]KSC[ξY]-NH2; disulfide 2-7) | 10.6
CCCCCC(=O)N[C@@H](Cc1ccc(Cl)cc1)C(=O)N[C@@H]1CSSC[C@@H](C(=O)N[C@H](Cc2ccc(O)cc2)C(N)=O)NC(=O)[C@H]([C@@H](C)O)NC(=O)[C@H](CCCCNC)NC(=O)[C@@H](Cc2ccc(C(N)=O)cc2)NC(=O)[C@H](Cc2ccc(O)cc2)NC1=O [Compound 56, CH3(CH2)4(CO)-Cpa-cyclo[D-Cys-Tyr-D-Phe(4-carbamoyl)-Lys(N^ε-Me)-Thr-Cys]-D-Tyr-NH2] (Hexanoyl-[Phe(4-Cl)][dC]Y[dPhe(4-CONH2)][Lys(Me)]TC[dY]-NH2; disulfide 2-7) | 1.6
CNCCCC[C@@H]1NC(=O)[C@@H](Cc2ccc(C(N)=O)cc2)NC(=O)[C@H](Cc2ccc(O)cc2)NC(=O)[C@H](NC(=O)[C@H](Cc2ccc(Cl)cc2)NC(=O)c2ccccn2)CSSC[C@@H](C(=O)N[C@H](Cc2ccc(O)cc2)C(N)=O)NC(=O)[C@H]([C@@H](C)O)NC1=O [Compound 53, 2-Pyridyl(CO)-Cpa-cyclo[D-Cys-Tyr-D-Phe(4-carbamoyl)-Lys(N^ε-Me)-Thr-Cys]-D-Tyr-NH2] (Picolinoyl-[Phe(4-Cl)][dC]Y[dPhe(4-CONH2)][Lys(Me)]TC[dY]-NH2; disulfide 2-7) | 4.28
C[C@@H](O)[C@@H]1NC(=O)[C@H](CCCCN)NC(=O)[C@@H](Cc2ccc(C(N)=O)cc2)NC(=O)[C@H](Cc2ccccc2)NC(=O)[C@H](NC(=O)[C@@H](N)Cc2ccc(Cl)cc2)CSSC[C@@H](C(=O)NC(Cc2ccc(O)cc2)C(N)=O)NC1=O (stereo partly drawn) [Compound 35, H-Cpa-cyclo[DCys- Phe-D-(4- carbamoyl)Phe-Lys- Thr-Cys]-DTyr-NH2] (H-[Phe(4-Cl)][dC]F[dPhe(4-CONH2)]KTC[ξY]-NH2; disulfide 2-7) | 35.9
CNCCCC[C@@H]1NC(=O)[C@@H](Cc2ccc(C(N)=O)cc2)NC(=O)[C@H](Cc2ccc(O)cc2)NC(=O)[C@H](NC(=O)[C@@H](N)Cc2ccc(Cl)cc2)CSSC[C@@H](C(=O)NC(Cc2ccc(Cl)cc2)C(N)=O)NC(=O)[C@H]([C@@H](C)O)NC1=O (stereo partly drawn) [Compound 46, H-Cpa-cyclo[D-Cys-Tyr-D-Phe(4-carbamoyl)-Lys(N^ε-Me)-Thr-Cys]-D-Cpa-NH2] (H-[Phe(4-Cl)][dC]Y[dPhe(4-CONH2)][Lys(Me)]TC[ξPhe(4-Cl)]-NH2; disulfide 2-7) | 0.398
C[C@@H](O)[C@@H]1NC(=O)[C@H](CCCCN)NC(=O)[C@@H](Cc2ccc(C(N)=O)cc2)NC(=O)[C@H](Cc2ccc(O)cc2)NC(=O)[C@H](NC(=O)[C@@H](N)Cc2ccc(Cl)cc2)CSSC[C@@H](C(=O)N(C)[C@H](Cc2ccc(O)cc2)C(N)=O)NC1=O [Compound 79, H-Cpa-[DCys- Tyr-DPhe(4- carbamoyl)-Lys- Thr-Cys]- NMeDTyr-NH2] (H-[Phe(4-Cl)][dC]Y[dPhe(4-CONH2)]KTC[dNMeY]-NH2; disulfide 2-7) | 28.7
CC(O)[C@@H]1NC(=O)[C@H](CCCCN)NC(=O)[C@@H](Cc2ccc(C(N)=O)cc2)NC(=O)[C@H](Cc2ccc(O)cc2)NC(=O)[C@H](NC(=O)[C@@H](N)Cc2ccc(Cl)cc2)CNC(=O)SC[C@@H](C(=O)N[C@H](Cc2ccc(O)cc2)C(N)=O)NC1=O (stereo in doubt) [Compound 61, H-Cpa-cyclo[Dap- Tyr-DPhe (4-CONH2)- Lys-Thr-Cys]- DTyr-NH2] | > 1000
C[C@@H](O)[C@@H]1NC(=O)[C@H](CCCCN)NC(=O)[C@@H](Cc2ccc(C#N)cc2)NC(=O)[C@H](Cc2ccc(O)cc2)NC(=O)[C@H](NC(=O)[C@@H](N)Cc2ccc(Cl)cc2)CSSC[C@@H](C(=O)N[C@H](Cc2ccc(O)cc2)C(N)=O)NC1=O [Compound 59, H-Cpa-[DCys- Tyr-DPhe(4-CN)- Lys-Thr-Cys]- DTyr-NH2] (H-[Phe(4-Cl)][dC]Y[dPhe(4-CN)]KTC[dY]-NH2; disulfide 2-7) | 39.1

Continued, values first:

IC50 [nM] | Compound
1.73 | CNCCCC[C@@H]1NC(=O)[C@@H](Cc2ccc(C(N)=O)cc2)NC(=O)[C@H](Cc2ccc(O)cc2)NC(=O)[C@H](NC(=O)[C@H](Cc2ccc(Cl)cc2)NC(=O)CC(C)(C)C)CSSC[C@@H](C(=O)N[C@H](Cc2ccc(O)cc2)C(N)=O)NC(=O)[C@H]([C@@H](C)O)NC1=O [Compound 52, t-BuCH2(CO)-Cpa-cyclo[D-Cys-Tyr-D-Phe(4-carbamoyl)-Lys(N^ε-Me)-Thr-Cys]-D-Tyr-NH2] ({Butanoyl(3,3-Me2)}-[Phe(4-Cl)][dC]Y[dPhe(4-CONH2)][Lys(Me)]TC[dY]-NH2; disulfide 2-7)
43.4 | CC(C)(C)[C@@H]1NC(=O)[C@H](CCCCN)NC(=O)[C@@H](Cc2ccc(C(N)=O)cc2)NC(=O)[C@H](Cc2ccc(O)cc2)NC(=O)[C@H](NC(=O)[C@@H](N)Cc2ccc(Cl)cc2)CSSC[C@@H](C(=O)NC(Cc2ccc(O)cc2)C(N)=O)NC1=O (stereo partly drawn) [Compound 34, H-Cpa-cyclo[DCys- Tyr-D-4- (carbamoyl)Phe-Lys- tBu-Gly-Cys]-DTyr- NH2] (H-[Phe(4-Cl)][dC]Y[dPhe(4-CONH2)]K[Tle]C[ξY]-NH2; disulfide 2-7)
547 | C[C@@H](O)[C@H]1C(=O)N[C@H](C(=O)N[C@H](Cc2ccc(O)cc2)C(N)=O)CSSC[C@@H](NC(=O)[C@@H](N)Cc2ccc(Cl)cc2)C(=O)N[C@@H](Cc2ccc(O)cc2)C(=O)N[C@H](Cc2ccc(C(N)=O)cc2)C(=O)N[C@@H](CCCCN)C(=O)N1C [Compound 73, H-Cpa-[DCys-Tyr- DPhe(4-carbamoyl)- Lys-NMeThr- Cys]-DTyr-NH2] (H-[Phe(4-Cl)][dC]Y[dPhe(4-CONH2)]K[NMeT]C[dY]-NH2; disulfide 2-7)
16.2 | C[C@@H](O)[C@@H]1NC(=O)[C@H](CCCCN)NC(=O)[C@@H](Cc2ccc(C(N)=O)cc2)NC(=O)[C@H](Cc2ccc(O)cc2)NC(=O)[C@H](NC(=O)[C@@H](N)Cc2ccc(Cl)cc2)CSSC[C@@H](C(=O)NC(Cc2ccccc2)C(N)=O)NC1=O (stereo partly drawn) [Compound 40, H-Cpa-cyclo[DCys- Tyr-D-(4- carbamoyl)Phe-Lys- Thr-Cys]-DPhe-NH2] (H-[Phe(4-Cl)][dC]Y[dPhe(4-CONH2)]KTC[ξF]-NH2; disulfide 2-7)
> 1000 | CN[C@@H](Cc1ccc(Cl)cc1)C(=O)N[C@@H]1CSSC[C@@H](C(=O)N(C)[C@H](Cc2ccc(O)cc2)C(N)=O)NC(=O)[C@H]([C@@H](C)O)N(C)C(=O)[C@H](CCCCN)NC(=O)[C@@H](Cc2ccc(C(N)=O)cc2)NC(=O)[C@H](Cc2ccc(O)cc2)N(C)C1=O [Compound 80, H-NMeCpa-[DCys-NMeTyr-DPhe(4-carbamoyl)-Lys-NMeThr-Cys]-NMeTyr-NH2] (H-[NMePhe(4-Cl)][dC][NMeY][dPhe(4-CONH2)]K[NMeT]C[dNMeY]-NH2; disulfide 2-7)

Reference: patent publication US12486302B2, “Somatostatin receptor antagonist compounds and methods of using the same” (CDRD VENTURES INC., priority 2016, dated 2025)
